Key:
DPPH antioxidant assay = format: biochemical; settings: 100 μM
Protocol: The ability of the cannabinoids to act as potential antioxidants was assessed using the 2,2-diphenyl-1-picrylhydrazyl (DPPH) antioxidant assay. The cannabinoids CBDA, CBD, CBDVA, CBDV, CBG, THCV, and the 1:1 CBD:CBDA mixture had the highest antioxidant activities with radical scavenging activities of 38.19%, 48.00%, 43.81%, 44.21%, 44.28%, 45.71%, and 43.74%, respectively.
The 2,2-diphenyl-1-picrylhydrazyl (DPPH) free radical (Alfa Aesar) was prepared at 0.1 mM in ethanol. The cannabinoids were tested at a final concentration of 100 uM. 2 uL of 7.5 mM stock solutions of the cannabinoids to be tested in DMSO were added to 148 uL of 0.1 mM DPPH to achieve a final concentration of 100 μM in the assay. Ascorbic acid (Thermo Scientific) at a final concentration of 10 mg/ml was used as a positive control. The reaction mixture was incubated in the dark at room temperature for 1 hour, the absorbance of the mixture was read at 517 nm using a Spectra Max 5M microplate reader (Molecular Devices, LLC, Sunnyvale, Calif., USA) and the absorbance was converted to percent radical scavenging activity (% RSA) using the following formula: % RSA=[(Absorbance of the control−Absorbance of the sample)/(Absorbance of the control)]×100.
Free radical production occurs when the immune system is activated and antioxidants represent potential effective treatments for inflammatory conditions and autoimmune diseases. […] The DPPH antioxidant assay can be used to measure the ability of a compound to scavenge free radicals by measuring the ability of compounds to hydrogenate and reduce DPPH. The DPPH assay was conducted on CBCA, CBDA, CBDVA, CBGA, CBLA, CBNA, THCVA, and their decarboxylated derivatives as well as the 1:1 CBD:CBDA mixture.

[1] = tested on: cytokine levels in differentiated THP-1 cells treated with LPS; assay: THP-1 human cellular LPS cytokine assay, three independent experiments, total averaged suppression
Protocol: Cells were seeded onto 24-, or 12-well plates and incubated for 48 hours to 72 hours to allow for differentiation. […] Supernatants were collected for quantification of human cytokine levels to assess the cytokine response. Cells remaining after the supernatant collection were tested to ensure they had at least 90% viability as determined by Alamar Blue assays. To conduct the Alamar Blue assays, supernatants were replaced with culture medium containing 1× Alamar Blue reagent and incubated overnight. Cell viability was assessed by measuring relative fluorescent units (RFU) on the SpectraMax M2e microplate reader (Molecular Devices Inc., Sunnyvale, Calif., USA) at Excitation 560 nm and Emission 590 nm. Controls included untreated cells with DMSO at the same concentration as the treated cells, LPS stimulated cells with DMSO at the same concentration as the treated cells and LPS stimulated cell with the various treatments. The levels of 42 of the most common human cytokines (Eve Technologies, Calgary, Canada Table 6) were determined by multi-plex analysis.
For this reason, the level of cytokine suppression was determined for each cytokine by each cannabinoid that was tested and the total averaged suppression for each cannabinoid was determined by dividing the total suppression by the number of the cytokines that were analyzed.

[2] = tested on: differentiated U-937 cells; assay: Human cellular U-937 autophagy induction assay (anti-LC3); format: cell-based
Protocol: The induction of autophagy was monitored using anti-LC3 antibodies to detect LC3 on the autophagosome in human U-937 pro-monocytic histiocytic lymphoma cells (ATCC, Manassas, Va., USA), which generate morphologies characteristic of macrophages upon induction by various stimuli. U-937 cells were cultured in RPMI-1640 medium with L-glutamine and sodium bicarbonate (Sigma-Aldrich, St Louis, Mo.) supplemented with 10% fetal bovine serum (FBS) and 1% penicillin in 25 cm2 tissue flasks at 37° C. in a 5% CO2 humidified atmosphere and passaged every 2-3 days. U-937 cells were seeded in 96 well plates at 5×10^5 cells/mL and stimulated with 100 ng/mL PMA to induce differentiation for 24 hours. The cells were then treated with the various cannabinoids at 1.0 μM concentrations for 12 hours. 30 μM chloroquine was used as a positive control. After treatment, the cells were fixed using 3.7% formaldehyde in PBS for 15 minutes at room temperature and washed with PBS to remove the fixative. Permeabilization reagent (0.2% Triton X-100 in PBS) (Sigma-Aldrich) was added, the cells were incubated for 15 minutes at room temperature and then the cells were washed with PBS to remove the permeabilization reagent. LC3B rabbit polyclonal antibody (Invitrogen) was added at a final concentration of 0.5 μg/ml for 1 hour at room temperature and the cells were washed with PBS remove the primary antibody. Secondary conjugated goat anti-rabbit polyclonal antibody (Thermo Scientific) was then added at a final concentration of 2.0 μg/ml for 1 hour at room temperature. The cells were washed, Hoechst dye was added to stain the nucleus and the cells were imaged using an Arrayscan VTI high-content screening (HCS) reader (Thermo Scientific) with the appropriate filters and the data was analyzed using the vHCS Scan software.
Chloroquine at a concentration of 30 μM was included as a positive control. The ability to induce autophagy was determined as a percentage with respect to the untreated control.

[3] = tested on: cytokines induced in mice by LPS; assay: Mouse LPS cytokine animal model (Example 3), cannabinoids in PB with 5% DMSO; format: in vivo; settings: 5 mg/kg
Protocol: This experiment was conducted to compare the ability of CBD, CBDA or the 1:1 equimolar mixture of CBD:CBDA to suppress the induction of cytokines whose expression levels were induced in mice by LPS.
The ability of agents to suppress the immune system can be tested in vivo using an LPS mouse model, in which mice are injected with LPS to cause an immune response (Field et al., 1970; Ghezzi P and Sipe J D, 1988).
Four 20 g female C57BL/6 mice were used per group. The experimental mice were first injected with 0.1 mL of the cannabinoids prepared at 1 mg/mL in phosphate buffer (PB) with 5% DMSO to yield a final dose of 5 mg/kg, followed one hour later by the injection of 0.1 mL of 0.02 mg/mL LPS in PB to yield a final dose of 0.1 mg/kg. Mice injected with 0.1 mL of PB with 5% DMSO and 0.1 mL of PBS served as a non-induced control and mice injected with 0.1 mL of PB with 5% DMSO and 0.1 mL of 0.02 mg/mL LPS in PB served as a LPS untreated control. After allowing two hours for the immune system to be induced by LPS, the mice were then euthanized, heart punctures performed to extract the blood, which was allowed to coagulate on ice for 1 hour before centrifuging to isolate the serum. The levels of 32 of the most common mouse cytokines (Eve Technologies, Calgary, Canada, Table 9) were determined by multi-plex analysis.

[4] = tested on: cytokine levels in differentiated THP-1 cells treated with LPS; assay: THP-1 human cellular LPS cytokine assay, four independent experiments, per cytokine; format: cell-based; settings: LPS 20 ng/mL

Structure (SMILES): C=C(C)[C@@H]1CCC(C)=C[C@H]1c1c(O)cc(CCCCC)c(C(=O)O)c1O [CBDA, 2,4-Dihydroxy-3-[(1R,6R)-6-isopropenyl-3-methyl-2-cyclohexen-1-yl]-6-pentylbenzoic acid]
- radical scavenging activity compared to the untreated control (DPPH antioxidant assay): at least two-fold
- % RSA (radical scavenging activity) (DPPH antioxidant assay; 1 hour): 38.19%
- effectiveness at reducing elevated cytokine levels relative to dexamethasone [1]: at least half as effective as dexamethasone
- inhibition at 2 µM ([1]; Homo sapiens, THP-1, 4 h, read-out: % Cytokine Suppression (total averaged)): 37.2%
- Fluorescence (LC3) ([2]; 1.0 μM, 12 hours): 37.64
- activation at 1 µM ([2]; Homo sapiens, U-937, 12 h, read-out: Induction of autophagy with respect to the untreated control): -22%
- Average cytokine suppression [3]: 13.71%
- GM-CSF suppression [3]: 27.86%
- IFNγ suppression [3]: 31.60%
- IL-1β suppression [3]: 11.89%
- IL-2 suppression [3]: 7.82%
- IL-6 suppression [3]: 6.09%
- IL-12β p40 suppression [3]: 58.93%
- IL-13 suppression [3]: 4.16%
- IL-17 suppression [3]: 7.86%
- IP-10 suppression [3]: 4.58%
- KC suppression [3]: 18.15%
- LIF suppression [3]: 28.12%
- M-CSF suppression [3]: −51.56%
- MIP-1α suppression [3]: 14.86%
- MIP-1β suppression [3]: 9.12%
- MIP-2 suppression [3]: 20.19%
- TNF-α suppression [3]: 19.69%
- EGF suppression ([4]; 2 µM): 5.34%
- FGF-β suppression ([4]; 2 µM): 30.37%
- Flt-3L suppression ([4]; 2 µM): 47.81%
- G-CSF suppression ([4]; 2 µM): 77.66%
- GM-CSF suppression ([4]; 2 µM): 43.68%
- IFNγ suppression ([4]; 2 µM): 60.44%
- IL-1α suppression ([4]; 2 µM): 44.04%
- IL-1β suppression ([4]; 2 µM): 53.82%
- IL-4 suppression ([4]; 2 µM): 10.49%
- IL-6 suppression ([4]; 2 µM): 69.39%
- IL-7 suppression ([4]; 2 µM): 37.62%
- IL-10 suppression ([4]; 2 µM): 23.20%
- IL-12 p70 suppression ([4]; 2 µM): 8.24%
- IL-15 suppression ([4]; 2 µM): 47.99%
- IL-18 suppression ([4]; 2 µM): 37.34%
- IP-10 suppression ([4]; 2 µM): 73.87%
- MCP-1 suppression ([4]; 2 µM): 54.97%
- MIP-1β suppression ([4]; 2 µM): 47.92%
- TNFα suppression ([4]; 2 µM): 28.56%
- TNFβ suppression ([4]; 2 µM): 45.83%
- Average cytokine suppression [4]: 42.43%

— patent US12678451B2, “Cannabinoid and omega fatty acid compositions and methods of using” (GreenWay Herbal Products, LLC, priority 2019, dated 2026)
